Test results reported in patent publication US4505854A, “Optically active dipeptides and the use thereof as tissue dissolving and histolytic agent in human beings” (Nattermann & Cie GmbH, priority 1981, dated 1985).
Counter-ions that a name gives are not always drawn.

Key:
[1] = acute toxicity, intravenous administration to rodents
healthy guineapig skin = conditions: for activity (induction of necrosis, activation of macrophages): comparison of stereoisomeric 2-phenylglycyl-2-phenylglycine dipeptides; for histolysis / local changes at the administration site: 25 or 50 mg/animal (control 10.7 mg/animal), 7 days
Description: They were then autopsied and the injection sites (skin and muscle) were subjected to pathological-anatomical and pathological-histological evaluation.
This is a chemotactic and activating action on macrophages, which also has a tissue dissolving effect. No systemic toxic symptoms or clinically detectable changes could be observed in any of the experimental animals.

[2] = local administration, guineapig skin

Structure (SMILES) | LD50 ([1]; acute experiment, administered intravenously (to rodents)) | toxicity, times lower than prior dipeptides of essential aminoacids ([1]; compared with 300 mg/kg intravenously (rodents)) [times lower] | activity (induction of necrosis, activation of macrophages) (healthy guineapig skin) | general tolerance / systemic toxic symptoms (healthy guineapig skin; in vivo) | macrophage and giant cell infiltration at the administration site (healthy guineapig skin; [2]) | histolysis / local changes at the administration site (healthy guineapig skin; [2])
N[C@@H](C(=O)N[C@@H](C(=O)O)c1ccccc1)c1ccccc1 | 1,000 mg/kg | 3 | outstanding properties to induce necrosis and activate macrophages | no indications of general intolerance | massive infiltration of macrophages and giant cells | Local and sharply delineated histolysis
NC(C(=O)NC(C(=O)O)c1ccccc1)c1ccccc1 (mixture of isomers) [reference compound] |  |  | only a very low activity |  |  | no local changes
N[C@H](C(=O)N[C@H](C(=O)O)c1ccccc1)c1ccccc1 [L-2-phenylglycyl-L-2-phenylglycine, reference compound] |  |  | no activity |  |  | 
NCC(=O)O [glycine hydrobromide, reference compound] |  |  |  |  |  | no local changes
